Results as given in patent US4853221A, “Method for treating non-small cell lung cancer, head and neck cancers and breast cancer” (Warner-Lambert Company, priority 1987, dated 1989).

Key:
[1] = test system: Advanced Stage P388 Leukemia; type: in vivo, mouse; conditions: Test 2
Method: (§1) Several studies were carried out to determine the potential for therapeutic synergy of trimetrexate with several clinically active anticancer agents. […] (See, for example, Vendetti, "Relevance of Transplantable Animal-Tumor Systems to the Selection of New Agents for Clinical Trial," Pharmacological Basis of Cancer Chemotherapy. Williams and Wilkins, Baltimore, 1975, and Simpson Herren, et al., "Evaluation of In Vivo Tumor Models for Predicting Clinical Activity for Anticancer Drugs," Proc. Am. Assoc. Cancer Res., 26: 330 (1985).
(§2) Differences in cell kill of greater than ten-fold (one log) were considered indicative of therapeutic synergy.
(§3) CD2F1 mice were quarantined for at least two weeks prior to allocation to test groups. P388 leukemia was passaged in DBA2 mice according to standard protocols of the National Cancer Institute. On Day 0 of a given test, all mice in the test were randomized, injected intraperitoneally with suitably diluted ascites fluid from P388 tumor-bearing donor mice and rerandomized to test cages.
The initial inoculum for all but titration groups was 10^6 cells as determined by hemocytometer count. […]
(§4) Group average weights were determined for all groups on Days 1, 5, and 9 for "early stage" P388 tests and on Days 4, 8, and 12 for "advanced stage" P388 tests. Animals were monitored for life span. […]

[2] = test system: Early Stage P388 Leukemia; assay: Combination chemotherapy, therapeutic synergy against early stage P388 leukemia; type: in vivo, mouse
Method: as §1, §2, §3
The initial inoculum for all but titration groups was 10^6 cells as determined by hemocytometer count. Each experiment contained an internal control and tumor titration which enabled the determination of the tumor doubling time and estimates of the log cell kill and number of tumor cells surviving treatment.
Drug treatment was begun either on Day 1 or on Day 4 depending upon the relative activity of the agents being tested.
All of the drugs were injected within one hour of dissolution, with the exception of trimetrexate which was made up fresh twice daily. All mice were treated on the basis of average cage-group weight.
In drug combination regimens, trimetrexate was given approximately 30 minutes before the other therapeutic agents when the route of administration of the other agent was ip. […]
as §4

[3] = test system: Colon tumor; assay: Human tumor cloning system, colon tumors; type: cell-based; conditions: methotrexate 0.3 μg/ml, one hour; 9 specimens
Description: (§5) The activity of trimetrexate was compared with that of methotrexate in tests with a human tumor cloning system (Latham, et al., Proc. Am. Assoc. Cancer Res., 24: 278 (1983)). The data from these tests appear in Table III were the activities are expressed as the numbers of tumors with 50% or greater reduction in tumor colony forming units after one hour exposure to the drug.

[4] = test system: Lung tumor; assay: Human tumor cloning system, lung tumors; type: cell-based; conditions: methotrexate 0.3 μg/ml, one hour; 8 specimens
Description: as §5

[5] = test system: B-Cell 8392; assay: Inhibition of B-Cell 8392 growth in vitro; type: cell-based, human; conditions: Homo sapiens, B-cell, 48 h, read-out: ED50
Method: (§6) Logarithmically growing L1210 cells (approximately 3×10^5 cells/ml) were diluted with Fischer's medium (containing 10% horse serum) to an approximate concentration of 5×10^4 cells/ml. Cells were planted in duplicate into 15 ml culture tubes containing either no drug or various amounts of drug, and incubated for 48 hours at 37° C. before being counted.
(§7) Trimetrexate was also evaluated in a similar manner side-by-side with methotrexate for its effect on the growth of three additional murine cell lines (L5178Y, Sarcoma-180, and Walkler-256) and three human cell lines (acute myelogenous leukemia K-562, T-cell 8402, and B-cell 8392), propagated in vitro.

[6] = test system: L1210 cells; assay: Inhibition of L1210 cell growth in vitro; type: cell-based, murine; conditions: Mus musculus, L1210, 48 h, read-out: ED50 for L1210 Cells
Method: Two leukemia cell lines (L1210 and L5178Y) and two solid tumor cell lines (Sarcoma 180 and Walker 256) were used in these studies.
as §6
*ED50 = the concentration of drug required to reduce the cell count
to 50%, determined by plotting the cell count versus drug concentration.

[7] = test system: human tumor cultures; assay: Human tumor cloning system, all tumors; type: cell-based
Description: as §5

[8] = test system: Miscell. tumors; assay: Human tumor cloning system, miscellaneous tumors; type: cell-based; conditions: methotrexate 0.3 μg/ml, one hour; 10 specimens
Description: as §5

[9] = test system: Melanoma; assay: Human tumor cloning system, melanoma; type: cell-based; conditions: methotrexate 0.3 μg/ml, one hour; 5 specimens
Description: as §5

[10] = test system: Ovarian tumor; assay: Human tumor cloning system, ovarian tumors; type: cell-based; conditions: methotrexate 0.3 μg/ml, one hour; 6 specimens
Description: as §5

[11] = test system: T-Cell 8402; assay: Inhibition of T-Cell 8402 growth in vitro; type: cell-based, human; conditions: Homo sapiens, T-cell, 48 h, read-out: ED50
Method: as §6, §7

[12] = test system: AML K-562; assay: Inhibition of AML K-562 cell growth in vitro; type: cell-based, human; conditions: Homo sapiens, K562, 48 h, read-out: ED50
Method: as §6, §7

[13] = test system: Renal tumor; assay: Human tumor cloning system, renal tumors; type: cell-based; conditions: methotrexate 0.3 μg/ml, one hour; 6 specimens
Description: as §5

[14] = test system: Breast tumor; assay: Human tumor cloning system, breast tumors; type: cell-based; conditions: methotrexate 0.3 μg/ml, one hour; 10 specimens
Description: as §5

N.N.[Cl][Pt][Cl] [Cisplatin, cis-Diamminedichloroplatinum (II)]
single agent activity [1]: considerably less active as a single agent

COc1cccc2c1C(=O)c1c(O)c3c(c(O)c1C2=O)C[C@@](O)(C(=O)CO)C[C@@H]3O[C@H]1C[C@H](N)[C@H](O)[C@H](C)O1 [Doxorubicin, (8S,10S)-10-[(3-Amino-2,3,6-trideoxy-α-L-lyxo-hexopyranosyl)oxy]-8-glycoloyl-7,8,9,10-tetrahydro-6,8,11-trihydroxy-1-methoxy-5,12-naphthacenedione]
single agent activity ([2]; Test 1): somewhat less active than expected

CN(Cc1cnc2nc(N)nc(N)c2n1)c1ccc(C(=O)N[C@@H](CCC(=O)O)C(=O)O)cc1 [Methotrexate, N-[4-[[(2,4-diamino-6-pteridinyl)methyl]methylamino]benzoyl]-L-glutamic acid, reference compound]
Number of Tumors with 50% or Greater Decrease in Tumor Colony Forming Units [3]: 2 | Number of Tumors with 50% or Greater Decrease in Tumor Colony Forming Units [4]: 1 | IC50 [5]: 25 nM | IC50 [6]: 8 nM | human tumor cultures sensitive to methotrexate and resistant to trimetrexate ([7]; 4/54): 7% | Number of Tumors with 50% or Greater Decrease in Tumor Colony Forming Units ([7]; Totals, methotrexate 0.3 μg/ml, one hour, 54 specimens): 7 | Number of Tumors with 50% or Greater Decrease in Tumor Colony Forming Units [8]: 1 | Number of Tumors with 50% or Greater Decrease in Tumor Colony Forming Units [9]: 1 | Number of Tumors with 50% or Greater Decrease in Tumor Colony Forming Units [10]: 0 | IC50 [11]: 25 nM | IC50 [12]: 50 nM | Number of Tumors with 50% or Greater Decrease in Tumor Colony Forming Units [13]: 1 | Number of Tumors with 50% or Greater Decrease in Tumor Colony Forming Units [14]: 1

CC[C@]1(O)C[C@H]2CN(CCc3c([nH]c4ccccc34)[C@@](C(=O)OC)(c3cc4c(cc3OC)N(C=O)[C@H]3[C@@](O)(C(=O)OC)[C@H](OC(C)=O)[C@]5(CC)C=CCN6CC[C@]43[C@@H]65)C2)C1 [Vincristine, 22-Oxo-vincaleukoblastine]
single agent activity ([2]; Test 2): the more active of the single agents
